Measurements from patent US4089862A, “Pyridyl substituted ergoline derivatives” (Societa' Farmaceutici Italia S.p.A., priority 1976, dated 1978).

System: rabbit platelets
Test: ADP induced platelet aggregation in vitro, turbidimetric method (Born and Cross, modified)
Format: cell-based
Details: percent of ADP controls, rabbit PRP
Description: For the relevant study on the platelet aggregation "in vitro" herein, the turbidimetric method initially described by Born and Cross (J. Physiol. 168, 178, 1963) has been followed with some changes, principally due to the use of rabbit platelets, rather than human or pig platelets, as reported in their original work: (1) Preparation of platelet-rich plasma (PRP) and platelet-poor plasma (PPP) Male rabbits weighing 2.5-3.5 kg were used. Fifty four ml of blood were withdrawn from the carotid artery of rabbits anaesthetized with ether. The blood was gently mixed with six ml of 3.8% trisodium citrate as anticoagulant. The PRP was obtained by centrifugation at 400 g for 10 minutes. The concentration of the platelets was adjusted to 250,000/mm^3 by diluting the PRP with PPP prepared by a second centrifugation of the blood samples for about 10 minutes at 2000 g. The aggregation experiments were in general performed within 1-2 hr. from the time of blood collection. (2) ADP induced platelet aggregation In the cuvette of the aggregometer, reagents were added as follows: 0.8 ml PRP, 0.2 ml drug solution or saline, and 0.2 ml ADP (adenosine diphosphate) at the molar concentration of 2.2 × 10^-4. The turbidimetry was checked after 11/2, 3 and 6 minutes. The inhibition of the aggregation is given in the table as percent of ADP controls at these three times.

[1] = 1 minute and 30 seconds after ADP, 50 γ
[2] = 1 minute and 30 seconds after ADP, 100 γ
[3] = 1 minute and 30 seconds after ADP, 200 γ

| SMILES | percent inhibition of platelet aggregation [1] [%] | percent inhibition of platelet aggregation [2] [%] | percent inhibition of platelet aggregation [3] [%] | percent inhibition of platelet aggregation (3 minutes after ADP, 50 γ) [%] | percent inhibition of platelet aggregation (3 minutes after ADP, 100 γ) [%] | percent inhibition of platelet aggregation (3 minutes after ADP, 200 γ) [%] | percent inhibition of platelet aggregation (6 minutes after ADP, 50 γ) [%] | percent inhibition of platelet aggregation (6 minutes after ADP, 100 γ) [%] | percent inhibition of platelet aggregation (6 minutes after ADP, 200 γ) [%] |
| --- | --- | --- | --- | --- | --- | --- | --- | --- | --- |
| CO[C@]12C[C@@H](CNc3ccccn3)CN(C)[C@@H]1Cc1cn(C)c3cccc2c13 [compound 925, N-(2'-pyridyl)-10α-methoxy-1,6-dimethylergoline-8β-methanamine] | 16 | 50 | 100 | 21 | 56 | 100 | 30 | 65 | 100 |
| CO[C@]12C[C@@H](CSc3ccc([N+](=O)[O-])cn3)CN(C)[C@@H]1Cc1cn(C)c3cccc2c13 [compound 926, 5'-Nitro-2'-pyridyl-10α-methoxy-1,6-dimethylergoline-8β-methyl sulphide] | 25 | 61 | 100 | 13 | 55 | 100 | 17 | 65 | 100 |
| CO[C@]12C[C@@H](CNc3ccc(Br)cn3)CN(C)[C@@H]1Cc1cn(C)c3cccc2c13 [compound 893, N-(5'-bromo-2'-pyridyl)-10α-methoxy-1,6-dimethylergoline-8β-methanamine] | 31 | 58 | 63 | 14 | 46 | 69 | 7 | 52 | 71 |
| CO[C@]12C[C@@H](COC(=O)c3cncc(Br)c3)CN(C)[C@@H]1Cc1cn(C)c3cccc2c13 [355/347, 10-methoxy-1,6-dimethyl-8β-methanol-5-bromonicotinate, reference compound] | 11 | 24 | 40 | 12 | 21 | 50 | 22 | 33 | 60 |
| CO[C@]12C[C@@H](CNc3cc(C)cc(C)n3)CN(C)[C@@H]1Cc1cn(C)c3cccc2c13 [compound 897, N-(4',6'-dimethyl-2'-pyridyl)-10α-methoxy-1,6-dimethylergoline-8β-methanamine] | 31 | 62 | 89 | 22 | 51 | 91 | 25 | 56 | 92 |
| CO[C@]12C[C@@H](CNc3cc(C)ccn3)CN(C)[C@@H]1Cc1cn(C)c3cccc2c13 [compound 894, N-(4'-methyl-2'-pyridyl)-10α-methoxy-1,6-dimethylergoline-8β-methanamine] | 22 | 61 | 100 | 22 | 61 | 100 | 29 | 71 | 100 |
